Data as given in patent publication US20100314318A1, “HALOGENATED AMIDE BIOCIDAL COMPOUNDS AND METHODS FOR TREATING WATER SYSTEMS AT NEAR NEUTRAL TO HIGH PH” (priority 2009, published 2010).

How the values were obtained:
bacterial consortium = experiment: Preservation of calcium carbonate slurry Hydrocarb 90 (pH 8.7); settings: 24-hr contact
[1] = system: bacteria isolated from Cooling Tower water; experiment: Efficacy in sterile artificial Cooling Tower water (approx. pH 8.5); type: cell-based; settings: 30° C.
[2] = going from pH 6 to pH 8.9; cited from earlier work
[3] = system: bacteria isolated from field; experiment: Efficacy in semi-synthetic metal working fluid; type: cell-based; settings: room temperature, MWF
[4] = system: Pseudomonas aeruginosa ATCC 10145; experiment: Bactericidal efficacy in synthetic salts water pH 8.5; type: cell-based; settings: 37° C.
Protocol: A sterile synthetic salts water is prepared and inoculated with Pseudomonas aeruginosa ATCC 10145 at about 10^7 CFU/mL. The synthetic water is prepared to contain (in 1 liter deionized water) the following: CaCl2, 0.2203 g; MgSO4, 0.1847 g; and NaHCO3, 0.2033 g. The final pH of the synthetic cooling water is adjusted to 8.5. Aliquots of the cell suspension are then treated with biocides at selected dosage levels. The same contaminated water sample without biocide is used as control. After incubating at 37° C. for different time intervals, numbers of surviving bacteria are enumerated using a serial dilution method. After incubating for 24 hr, all cell suspensions are reinoculated with Pseudomonas aeruginosa ATCC 10145 at 10^6 CFU/mL. The efficacy results for […]

[5] = system: bacteria in Cooling Tower water; experiment: Efficacy in cooling tower water sample (about pH 8.3), serial dilution count; type: cell-based
[6] = Stability against hydrolysis in buffered dilute solutions, HPLC

## N#CC(Br)(Br)C(N)=O [DBNPA, 2,2-Dibromo-3-nitrilopropionamide]
Bacterial consortium; 5 ppm
  change in populations of bacteria (FIG. 6): decrease relatively little
Bacterial consortium; 10 ppm
  decrease in numbers of bacteria (FIG. 6): approximately 0.5 orders of magnitude
[1]; 1 h
  Minimum biocide dosage (ppm, active) needed for at least 3 log10 bacterial reduction: 8.0 ppm
[1]; 3 h
  Minimum biocide dosage (ppm, active) needed for at least 3 log10 bacterial reduction: 8.0 ppm
[1]; 24 h
  Minimum biocide dosage (ppm, active) needed for at least 3 log10 bacterial reduction: 11.0 ppm
[1]; 48 h, reinoculated
  Minimum biocide dosage (ppm, active) needed for at least 3 log10 bacterial reduction: 15.0 ppm
[1]; 72 h, reinoculated
  Minimum biocide dosage (ppm, active) needed for at least 3 log10 bacterial reduction: 15.0 ppm
[1]; 96 h, reinoculated
  Minimum biocide dosage (ppm, active) needed for at least 3 log10 bacterial reduction: 21.0 ppm
[2]
  factor by which rate of disappearance increases: about 450
[3]; 2 h
  Minimum dosage (ppm, active) required for at least 3 log10 reduction in bacterial counts: 42 ppm
[3]; 4 h
  Minimum dosage (ppm, active) required for at least 3 log10 reduction in bacterial counts: 32 ppm
[3]; 24 h
  Minimum dosage (ppm, active) required for at least 3 log10 reduction in bacterial counts: 42 ppm
[3]; 48 h
  Minimum dosage (ppm, active) required for at least 3 log10 reduction in bacterial counts: 55 ppm
[3]; 72 h
  Minimum dosage (ppm, active) required for at least 3 log10 reduction in bacterial counts: 55 ppm
[3]; 96 h
  Minimum dosage (ppm, active) required for at least 3 log10 reduction in bacterial counts: 55 ppm
[4]; 1 hr, pH 8.5
  Dosage required for 3 log10 bacterial reduction (ppm, active): 2.9 ppm
[4]; 3 hr, pH 8.5
  Dosage required for 3 log10 bacterial reduction (ppm, active): 2.9 ppm
[4]; 24 hr, pH 8.5
  Dosage required for 3 log10 bacterial reduction (ppm, active): 4.4 ppm
[4]; 48 hr, pH 8.5, reinoculated after 24 hr
  Dosage required for 3 log10 bacterial reduction (ppm, active): 50.0 ppm
[5]; 12.5 ppm active, 1 hr
  Bacterial log10 reduction after biocide addition: 5.3 log10
[5]; 12.5 ppm active, 48 hrs, re-inoculated
  Bacterial log10 reduction after biocide addition: 1.5 log10
[5]; 12.5 ppm active, 72 hrs, re-inoculated
  Bacterial log10 reduction after biocide addition: 0.7 log10
[5]; 12.5 ppm active, 96 hrs, re-inoculated
  Bacterial log10 reduction after biocide addition: 0.3 log10
[5]; 25 ppm active, 1 hr
  Bacterial log10 reduction after biocide addition: 5.2 log10
[5]; 25 ppm active, 3 hr
  Bacterial log10 reduction after biocide addition: >=5.7 log10
[5]; 25 ppm active, 24 hrs
  Bacterial log10 reduction after biocide addition: >=6.3 log10
[5]; 25 ppm active, 48 hrs, re-inoculated
  Bacterial log10 reduction after biocide addition: 4.2 log10
[5]; 25 ppm active, 72 hrs, re-inoculated
  Bacterial log10 reduction after biocide addition: 1.0 log10
[5]; 25 ppm active, 96 hrs, re-inoculated
  Bacterial log10 reduction after biocide addition: 0.7 log10
[5]; 50 ppm active, 1 hr
  Bacterial log10 reduction after biocide addition: >=5.3 log10
[5]; 50 ppm active, 3 hr
  Bacterial log10 reduction after biocide addition: >=5.7 log10
[5]; 50 ppm active, 24 hrs
  Bacterial log10 reduction after biocide addition: >=6.3 log10
[5]; 50 ppm active, 48 hrs, re-inoculated
  Bacterial log10 reduction after biocide addition: 6.1 log10
[5]; 50 ppm active, 72 hrs, re-inoculated
  Bacterial log10 reduction after biocide addition: 1.0 log10
[5]; 50 ppm active, 96 hrs, re-inoculated
  Bacterial log10 reduction after biocide addition: 0.8 log10
[6]; pH 6.9, T = 30 C., 0 hours
  level of DBMAL or DBNPA remaining (HPLC): 3991
[6]; pH 6.9, T = 30 C., 2 hours
  level of DBMAL or DBNPA remaining (HPLC): 4155
[6]; pH 6.9, T = 30 C., 24 hours
  level of DBMAL or DBNPA remaining (HPLC): 2557
[6]; pH 6.9, T = 30 C., 48 hours
  level of DBMAL or DBNPA remaining (HPLC): 1361
[6]; pH 6.9, T = 30 C., 72 hours
  level of DBMAL or DBNPA remaining (HPLC): 918
[6]; pH 6.9, T = 30 C., 96 hours
  level of DBMAL or DBNPA remaining (HPLC): 658
[6]; pH 8, T = −1 C., 0 hours
  level of DBMAL or DBNPA remaining (HPLC): 4068
[6]; pH 8, T = −1 C., 2 hours
  level of DBMAL or DBNPA remaining (HPLC): 3998
[6]; pH 8, T = −1 C., 24 hours
  level of DBMAL or DBNPA remaining (HPLC): 3506
[6]; pH 8, T = −1 C., 48 hours
  level of DBMAL or DBNPA remaining (HPLC): 3578
[6]; pH 8, T = −1 C., 72 hours
  level of DBMAL or DBNPA remaining (HPLC): 3149
[6]; pH 8, T = −1 C., 96 hours
  level of DBMAL or DBNPA remaining (HPLC): 3070
[6]; pH 9, T = −1 C., 0 hours
  level of DBMAL or DBNPA remaining (HPLC): 3842
[6]; pH 9, T = −1 C., 2 hours
  level of DBMAL or DBNPA remaining (HPLC): 2818
[6]; pH 9, T = −1 C., 24 hours
  level of DBMAL or DBNPA remaining (HPLC): 1256
[6]; pH 9, T = −1 C., 48 hours
  level of DBMAL or DBNPA remaining (HPLC): 659
[6]; pH 9, T = −1 C., 72 hours
  level of DBMAL or DBNPA remaining (HPLC): 363
[6]; pH 9, T = −1 C., 96 hours
  level of DBMAL or DBNPA remaining (HPLC): 239
